Experimental findings from ChEMBL document CHEMBL1201862, “PubChem BioAssay data set” (2004) are described below.

Experiment [1] concerns HEK293. The experiment in a line: viability loss in HEK293T cells – cell-based, ATP luminescence, cherry-pick samples, cytotoxicity control, dose response (AID 687005).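 Note: cells exposed to compound for 48 hours.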 In kind it is functional. As to conditions: Homo sapiens.
Experiment [2] in a line: HEK293 Cytotoxicity Assay Measured in Cell-Based System Using Plate Reader - 7071-01_Inhibitor_Dose_CherryPick_Activity_Set2. In kind it is functional.
The nature of experiment [3]: blockers of HIV-1 envelope-mediated cell-cell fusion – cherry-pick, dose response (AID 652057). It is filed as functional, cell-based.
Experiment [4] in a line: HIV-1 AD8 envelope cell-cell fusion blockers – cherry-pick, dose response (AID 652062).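 Note: luciferase signal from cell-cell fusion driven by HIV-1 clade B AD8 Env; potency is for inhibitors of fusion seen as a drop in luminescence.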 It is filed as functional, cell-based.
The nature of experiment [5]: inhibition of Env-driven cell fusion – HIV entry, plate reader, dry powder, dose response (AID 687023). In kind it is functional, cell-based.
The nature of experiment [6]: viability of HCT116 lacking mutant beta-catenin – cell-based, human colon tumor, dose response (AID 1045).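 Note: HCT116 colon tumor cells with beta catenin knocked out; cells exposed to compound for 60 hours.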 It is filed as functional.
A further experiment deals with T1, Protein skinhead-1 (Caenorhabditis elegans, UniProt P34707).
T1 sequence (P34707 whole entry): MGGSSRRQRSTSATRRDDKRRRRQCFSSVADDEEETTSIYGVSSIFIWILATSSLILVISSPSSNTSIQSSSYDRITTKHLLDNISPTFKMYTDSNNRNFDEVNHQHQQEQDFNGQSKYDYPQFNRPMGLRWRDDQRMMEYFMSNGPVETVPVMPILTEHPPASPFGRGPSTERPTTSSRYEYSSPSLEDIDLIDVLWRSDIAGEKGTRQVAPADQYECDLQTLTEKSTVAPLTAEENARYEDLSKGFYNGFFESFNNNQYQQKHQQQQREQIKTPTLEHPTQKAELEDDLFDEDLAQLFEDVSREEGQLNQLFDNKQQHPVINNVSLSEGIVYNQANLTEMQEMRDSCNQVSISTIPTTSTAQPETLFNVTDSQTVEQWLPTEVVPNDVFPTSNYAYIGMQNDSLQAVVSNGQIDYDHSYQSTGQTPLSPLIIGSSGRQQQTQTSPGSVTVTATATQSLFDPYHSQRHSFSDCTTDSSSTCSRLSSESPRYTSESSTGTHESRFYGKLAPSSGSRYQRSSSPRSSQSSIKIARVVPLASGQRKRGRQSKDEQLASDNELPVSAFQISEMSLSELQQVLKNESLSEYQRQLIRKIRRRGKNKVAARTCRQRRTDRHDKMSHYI
In kind it is functional.

The nature of experiment [7]: viability of PTEN-deleted HCT116 cells – cell-based, HCT116 PTEN knockout, dose response (AID 1047).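 Note: HCT116 colon tumor cells with PTEN knocked out; cells exposed to compound for 60 hours before readout; potency for loss of cell viability measured by luminescence.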 In kind it is functional.
Experiment [8] in a line: reduced cellular PGC1a acetyl-lysine signal – cell-based, cherry-picked samples, dose response (AID 720514).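 Note: potency may reflect raised or lowered acetylation signal.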 It is filed as functional.
Experiment [9] can be described thus: Luminescence-based cell-based high throughput dose response assay to identify activators of the DAF-12 from the parasite S. stercoralis (ssDAF-12). It is filed as functional.
For experiment [10], the target named is T2, Oxysterols receptor LXR-beta (Homo sapiens, UniProt P55055).
T2 sequence (P55055 whole entry): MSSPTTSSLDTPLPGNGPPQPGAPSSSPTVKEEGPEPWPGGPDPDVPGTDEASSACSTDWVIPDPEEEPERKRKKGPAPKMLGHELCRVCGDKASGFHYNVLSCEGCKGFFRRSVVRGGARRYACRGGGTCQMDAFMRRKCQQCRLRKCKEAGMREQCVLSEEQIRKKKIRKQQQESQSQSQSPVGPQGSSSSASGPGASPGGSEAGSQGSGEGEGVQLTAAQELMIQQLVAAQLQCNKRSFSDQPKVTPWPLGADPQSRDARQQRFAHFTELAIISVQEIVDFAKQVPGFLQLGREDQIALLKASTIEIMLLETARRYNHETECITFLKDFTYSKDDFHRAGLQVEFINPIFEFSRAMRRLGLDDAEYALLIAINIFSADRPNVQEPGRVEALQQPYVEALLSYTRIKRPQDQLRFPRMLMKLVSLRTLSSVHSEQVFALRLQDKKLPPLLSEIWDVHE
The experiment in a line: LXR agonists, Gal4 luciferase reporter, dose response, counter-screen for ssDAF-12 agonist project, cell-based, luminescence, HEK293, S. stercoralis campaign (AID 720737). Conditions: read-out: IC50 (the source's name). In kind it is functional. A general note: Reporter assays use an easily measured gene product as a stand-in for the process of interest.

A short description of experiment [11]: T. cruzi growth inhibition in host cells, dose response, cell-based, plate reader, dry powder, set 2 (AID 652275). It is filed as functional.
Experiment [12] can be described thus: African trypanosome bloodstream form growth inhibition – STIB900 strain, plate reader, cherry pick, dose response (AID 651893). As to conditions: Trypanosoma brucei. In kind it is functional, cell-based, Trypanosoma brucei rhodesiense.
Experiment [13] is described as follows: host muscle cell viability loss – plate reader, dry powder, counter-screen for T. cruzi inhibitor project, dose response (AID 651895). It is filed as functional, cell-based.
Experiment [14] can be described thus: intracellular Chagas parasite inhibition in myoblasts – Tulahuen strain, L-6 host cells, dry powder, dose response (AID 651890). In kind it is functional, cell-based.
Experiment [15] can be described thus: antileishmanial activity on axenic amastigotes – plate reader, cherry pick, dose response (AID 651891). In kind it is functional, cell-based. As to conditions: Leishmania donovani.
Experiment [16] in a line: intracellular Trypanosoma cruzi inhibitors in host cells – cell-based, plate reader, cherry-pick samples, set 3, dose response (AID 651818).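 Note: compounds incubated with infected cells for about four days.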 In kind it is functional.
Experiment [17] is described as follows: Trypanosoma cruzi replication inhibitors in host cells – cell-based, plate reader, dry powder samples, dose response (AID 651845). In kind it is functional.
Experiment [18] is described as follows: L6 myocyte viability loss – cell-based, plate reader, cherry-pick, cytotoxicity control, dose response (AID 651896). In kind it is functional.
Experiment [19] is described as follows: anti-trypanosomal activity in BESM host cells – imaging, CA-I/72 strain, bovine embryo skeletal muscle, dry powder, dose response (AID 651885). It is filed as functional, cell-based.
Experiment [20] can be described thus: antileishmanial activity on axenic amastigotes – plate reader, dry powder, dose response (AID 651892). It is filed as functional, cell-based.
Experiment [21] is described as follows: African trypanosome bloodstream form growth inhibition – STIB900 strain, plate reader, dry powder, dose response (AID 651894). In kind it is functional, cell-based.
A short description of experiment [22]: antimalarial activity against erythrocytic parasites – NF54 strain, plate reader, dry powder, dose response (AID 651889). In kind it is functional, cell-based.
Experiment [23] can be described thus: growth inhibition of replicating M. tuberculosis, dose response, counter-screen, dry powder, IC90 (AID 651617). It is filed as functional. As to conditions: Mycobacterium tuberculosis.
A short description of experiment [24]: inhibitors of non-replicating M. tuberculosis, dose response, luciferase, dry powder (AID 651619). In kind it is functional. As to conditions: Mycobacterium tuberculosis.
Experiment [25] can be described thus: inhibitors of non-replicating M. tuberculosis, dose response, luciferase, dry powder (AID 651620). As to conditions: Mycobacterium tuberculosis. It is filed as functional.
For experiment [26], the target named is E3 ubiquitin-protein ligase UHRF1 (Homo sapiens, UniProt Q96T88). The experiment in a line: Counterscreen for inhibitors of 5-meCpG-binding domain protein 2 (MBD2): TRFRET-based biochemical high throughput dose response assay to identify inhibitors of binding of ubiquitin-like with PHD and ring finger domains 1 (UHRF1) to methylated oligonucleotide. For orientation: Counterscreens check selectivity or assay interference.

Experiment [27] is described as follows: loss of viability in HepG2 cells – cell-based, CellTiter-Glo, cherry-picked, cytotoxicity control for Shn3 inhibitor project, dose response (AID 624134). It is filed as functional. On the technique in general: In ATP-based viability assays light output follows the ATP content of the culture.
Experiment [28] deals with HEK293. Kind of experiment: cells. As to conditions: Homo sapiens.
Experiment [29] in a line: reduction of Shn3 3'UTR-driven luciferase in osteoblasts – cell-based, Clone20 osteoblasts, firefly luciferase, cherry-picked, dose response (AID 624132).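 Note: firefly luciferase luminescence from reporter carrying the Shn3 3'UTR in osteoblasts.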 It is filed as functional.
The subject of experiment [30] is HEK293. The experiment in a line: cells. As to conditions: Homo sapiens. This is another data set of the same source.
In experiment [31] the target is T3, DNA repair protein RAD52 homolog (Homo sapiens, UniProt P43351).
T3 sequence (P43351 whole entry): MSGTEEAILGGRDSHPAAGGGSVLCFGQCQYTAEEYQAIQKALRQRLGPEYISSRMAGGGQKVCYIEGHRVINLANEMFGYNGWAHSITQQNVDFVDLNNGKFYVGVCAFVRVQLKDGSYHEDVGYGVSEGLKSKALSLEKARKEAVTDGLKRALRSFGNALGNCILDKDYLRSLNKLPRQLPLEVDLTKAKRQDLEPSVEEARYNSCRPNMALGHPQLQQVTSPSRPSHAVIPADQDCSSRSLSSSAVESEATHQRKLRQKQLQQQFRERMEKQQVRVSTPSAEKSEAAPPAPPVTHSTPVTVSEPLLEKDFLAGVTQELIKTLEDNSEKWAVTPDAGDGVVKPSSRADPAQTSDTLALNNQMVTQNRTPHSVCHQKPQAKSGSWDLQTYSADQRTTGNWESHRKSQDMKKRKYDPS
It is filed as functional, biochemical.

Activity calls are given as the source filed them.

By AC50 is commonly meant the concentration at which the activity in the assay is half-maximal. In general, IC50 refers to the concentration at which inhibition is half-maximal. As a reminder, the IC90 is the point of the concentration-response curve where the effect stands at 90%.

Chain of E3 ubiquitin-protein ligase UHRF1 (Q96T88 whole entry, the tested form may be a part): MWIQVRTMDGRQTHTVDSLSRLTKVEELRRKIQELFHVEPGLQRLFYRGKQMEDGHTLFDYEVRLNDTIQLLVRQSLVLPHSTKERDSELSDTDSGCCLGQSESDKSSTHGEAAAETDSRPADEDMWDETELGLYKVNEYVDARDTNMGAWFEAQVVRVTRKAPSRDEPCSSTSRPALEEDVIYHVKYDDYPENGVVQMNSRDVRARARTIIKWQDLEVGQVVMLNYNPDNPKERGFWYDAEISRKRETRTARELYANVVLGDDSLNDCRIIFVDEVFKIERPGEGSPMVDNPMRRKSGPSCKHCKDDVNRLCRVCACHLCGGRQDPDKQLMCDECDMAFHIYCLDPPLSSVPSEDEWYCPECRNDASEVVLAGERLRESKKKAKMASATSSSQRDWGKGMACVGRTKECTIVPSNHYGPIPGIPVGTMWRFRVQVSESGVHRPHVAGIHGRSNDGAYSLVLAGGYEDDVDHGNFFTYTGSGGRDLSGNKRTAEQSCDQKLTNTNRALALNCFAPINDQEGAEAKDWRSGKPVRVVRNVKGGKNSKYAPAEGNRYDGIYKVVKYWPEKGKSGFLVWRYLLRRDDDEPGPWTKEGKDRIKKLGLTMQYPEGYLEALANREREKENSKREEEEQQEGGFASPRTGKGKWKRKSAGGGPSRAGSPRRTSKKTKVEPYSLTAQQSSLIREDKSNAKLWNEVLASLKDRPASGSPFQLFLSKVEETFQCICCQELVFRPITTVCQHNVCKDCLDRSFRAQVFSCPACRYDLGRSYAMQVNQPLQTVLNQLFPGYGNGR

On to `C[C@H]1CCCCO[C@@H](CN(C)Cc2ccncc2)[C@@H](C)CN([C@@H](C)CO)C(=O)c2cc(NC(=O)Nc3ccccc3)ccc2O1`, for which the AC50 in the experiment with HEK293 [1] was 33.2 µM (active); in [2], 33.2 µM (active); in [3], 0.764 µM (active); in experiment [4], 32.9 µM (active); in experiment [5], 10.7 µM (active).
Regarding `Cc1[nH]c2ccccc2c1C(=O)/C=C/c1ccccc1`, the values for the EC50 in experiment [6] and in experiment [7] were 19.2 µM (active) and 22 µM (active), respectively. Further, the IC50 on Protein skinhead-1 was > 100 µM (inactive). The AC50 in experiment [8] was 29.8 µM (active).
As to `C(=N\Nc1nc2ccccc2s1)/c1cccs1`, the IC50 in experiment [9] was > 67.5 µM (inactive). The EC50 in experiment [10] was > 67.5 µM (inactive).
As to `C[C@H]1CN([C@@H](C)CO)C(=O)c2cccc(NC(=O)c3ccncc3)c2O[C@H]1CN(C)Cc1ccc(Oc2ccccc2)cc1`, the AC50 in [11] is 0.0116 µM (active); in [16], 0.08 µM (active); in experiment [17], 0.0252 µM (active). Besides, the IC50 is 6.15 µM (inactive) in experiment [12]; 47.5 µM (inactive) in experiment [13]; 0.059 µM (active) in experiment [14]; > 100 µM (inactive) in experiment [15]; 43.7 µM (inactive) in [18]; 0.00042 µM (active) in experiment [19]. In addition, the IC50 in [20] was > 100 µM (inactive); in experiment [21], 3.62 µM (inactive); in [22], 2.94 µM (inactive).
For `COCCSc1nnc(-c2ccccc2)o1`, the IC90 in experiment [23] is 16 µM (active); in experiment [24], 4 µM (active); in experiment [25], 4 µM (active).
With `COc1ccc(C(=O)NCCN(C)C)c2nc3ccccc3cc12`, the half-inhibitory concentration (IC50) in [26] is 9.07 µM (active). Moreover, the AC50 in experiment [27] is 5.16 µM (active); in experiment [29], 5.78 µM (active); in experiment [31], 1.04 µM (active). The EC50 with HEK293 [28] and with HEK293 [30] was > 59.5 µM (inactive) in each case.
